Results published in the NIST ThermoML archive (doi:10.1016/j.fluid.2007.12.007).
Numbers after ± are expanded uncertainties.

Conditions: 101.33 kPa, Liquid

| speed of sound (293.15 K) [m/s] | viscosity (293.15 K) [mPa·s] | speed of sound (298.15 K) [m/s] | viscosity (298.15 K) [mPa·s] | speed of sound (303.15 K) [m/s] | viscosity (303.15 K) [mPa·s] | speed of sound (308.15 K) [m/s] | viscosity (308.15 K) [mPa·s] | speed of sound (313.15 K) [m/s] | viscosity (313.15 K) [mPa·s] | speed of sound (318.15 K) [m/s] | viscosity (318.15 K) [mPa·s] | Compound |
| --- | --- | --- | --- | --- | --- | --- | --- | --- | --- | --- | --- | --- |
| 1232.6 ± 2.8 | 4.212 ± 0.43 | 1212.6 ± 2.7 | 3.034 ± 0.094 | 1194.6 ± 2.7 | 2.495 ± 0.076 | 1174.5 ± 2.7 | 2.106 ± 0.064 | 1155.9 ± 2.6 | 1.784 ± 0.055 | 1138.6 ± 2.6 | 1.524 ± 0.048 | CCC(C)O (centres undefined) [butan-2-ol] |
| 1615.8 ± 3.3 | 3.654 ± 0.081 | 1601 ± 3.3 | 3.322 ± 0.074 | 1589.2 ± 3.3 | 2.966 ± 0.067 | 1577.2 ± 3.3 | 2.653 ± 0.06 | 1565.1 ± 3.2 | 2.404 ± 0.055 | 1553.1 ± 3.2 | 2.219 ± 0.051 | NC=O [formamide] |
